Measurements reported in patent EP1762248A1, “Use of cobalt porphyrins in joint therapy with an immunosuppressant drug for treatment of transplant patients or autoimmune disorders” (CORIT Consorzio per la Ricerca sul, priority 2005, dated 2007).
Like-named read-outs stand apart in the source and are kept apart here.

Assays:
PBMCs [1] = assay: Proliferation of concanavalin A activated simian PBMCs by CFSE labelling; type: cell-based, primate; conditions: CoPP alone (CsA concentration 0), 96 hours (figure 2)
Source text: (§1) By means of staining with the DNA intercalator, PI, it has been possible to evaluate the apoptotic cells as a sub-diploid peak and the cells in the DNA synthesis and duplication stage (S+G2 stage) as peaks with a DNA content greater than or equal to the diploid content. The proliferation index of PBMCs has been evaluated by staining the cells with CFSE at the same time as stimulation.

PAEC cells = assay: Proliferation of PAEC cells by CFSE labelling and cytofluorometric analysis; type: cell-based, Pig; conditions: CoPP alone, various concentrations; versus untreated PAEC controls (figure 1)
Source text: Two in vitro experimental models have been used.
CFSE is a non-fluorescent dye which diffuses passively into the cell cytoplasm. Once inside the cytoplasm, the dye is cleaved by intracellular esterases, thus becoming fluorescent. This binds strongly to cellular proteins and is retained during cellular development. At each cell division stage, CFSE is distributed evenly to daughter cells, with the result that each cellular generation will inherit half of the CFSE content. When analysed by cytofluorimetry, the sequential reduction of CFSE is visualised as distinct peaks corresponding to ever more decreasing fluorescence. PAEC proliferation has been evaluated as a proliferation index, calculated as the sum of the cells in all generations divided by the number of original parental cells (e.g. in the second generation, the parental cells would correspond to the total number of cells in the second generation divided by 2, in the third, divided by 4, because each will have given rise to 2^1, 2^2 cells and so on for each generation).

HO-1 = conditions: paec, 72 h
Source text: Equal amounts of protein of each sample have been loaded and separated by electrophoresis on a 12% polyacrylamide gel in the presence of SDS (SDS-PAGE) and then transferred onto a nitrocellulose membrane (Amersham-Pharmacia) by means of electroblotting. […] The specific band has been detected by adding a chemiluminescent substrate followed by exposure to photographic film (ECL-Amersham-Pharmacia). The relative amount of HO-1 protein, normalised to the actin content of each sample, has been determined with the use of a densitometer (Pharmacia).
Following stimulation, HO-1 expression has been assessed by Western Blotting and densitometric analysis of the bands obtained. HO-1 expression is reported as the ratio of the intensity of the bands with respect to the control (table 1). The amount of protein loaded is normalised for actin.

PBMCs [2] = assay: Apoptosis analysis of simian PBMCs by PI staining (sub-diploid peak); type: cell-based, primate; conditions: CoPP alone; concanavalin A, 96 hours
Protocol: The pellet from each sample has been resuspended in 600 µl of PBS and subsequently, 1.4 ml of absolute ethanol has been added dropwise while shaking continuously. The samples have been left at -20°C overnight. Following fixation, the cells have been washed twice in PBS. The pellet has been resuspended in 500 µl of PI at a concentration of 50 µg/ml, to which 6.25 µl of Nonidet P40 and 8 µl of RNase A (1 mg/ml) have been added. The samples have been shaken vigorously and incubated for at least half an hour in the dark at room temperature. Following incubation, the samples have been analysed using a cytofluorimeter, for cell cycle analysis.
as §1
In order to study apoptosis, the percentage of cells in the sub-diploid stage has been quantified.

HO-1 expression in PAECs as the ratio of band intensity with respect to the control and normalised for actin (R) (HO-1; 50 µM): 6.0
HO-1 expression in PAECs as the ratio of band intensity with respect to the control and normalised for actin (R) (HO-1; 100 µM): 4.6
Substance: cobalt (III) protoporphyrin [CoPP]
concentration at which PBMC proliferation is inhibited (PBMCs [1]): > 25 µM
proliferation index of PAECs (PAEC cells): increases the proliferation index in a dose dependent manner
apoptosis (cells in the sub-diploid stage) (PBMCs [2]): up to 6%
